Values of other authors, collected in patent US20220242810A1, “CRYSTALLINE CANNABIGEROL” (Purisys LLC, priority 2019, published 2022).

Key:
5-HT1A receptor = target: T1, 5-HT1A receptor (Homo sapiens, UniProt P08908)
T1 sequence (P08908 1-422): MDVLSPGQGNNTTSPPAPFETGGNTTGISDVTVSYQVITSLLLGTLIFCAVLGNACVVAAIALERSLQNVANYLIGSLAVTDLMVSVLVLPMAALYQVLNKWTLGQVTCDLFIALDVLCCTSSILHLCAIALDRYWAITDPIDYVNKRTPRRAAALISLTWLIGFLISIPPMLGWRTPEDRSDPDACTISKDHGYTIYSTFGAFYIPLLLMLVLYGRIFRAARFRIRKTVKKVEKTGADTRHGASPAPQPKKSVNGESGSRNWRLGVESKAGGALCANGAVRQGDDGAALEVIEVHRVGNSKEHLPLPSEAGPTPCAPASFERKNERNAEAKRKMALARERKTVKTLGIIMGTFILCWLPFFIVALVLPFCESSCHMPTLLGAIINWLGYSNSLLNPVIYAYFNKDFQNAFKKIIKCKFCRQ

[1] = rats
[2] = system: uptake of γ-aminobutyric acid (GABA)
CBI receptor = CBI receptor (Homo sapiens, UniProt P21554)
Chain of CBI receptor (P21554 whole entry): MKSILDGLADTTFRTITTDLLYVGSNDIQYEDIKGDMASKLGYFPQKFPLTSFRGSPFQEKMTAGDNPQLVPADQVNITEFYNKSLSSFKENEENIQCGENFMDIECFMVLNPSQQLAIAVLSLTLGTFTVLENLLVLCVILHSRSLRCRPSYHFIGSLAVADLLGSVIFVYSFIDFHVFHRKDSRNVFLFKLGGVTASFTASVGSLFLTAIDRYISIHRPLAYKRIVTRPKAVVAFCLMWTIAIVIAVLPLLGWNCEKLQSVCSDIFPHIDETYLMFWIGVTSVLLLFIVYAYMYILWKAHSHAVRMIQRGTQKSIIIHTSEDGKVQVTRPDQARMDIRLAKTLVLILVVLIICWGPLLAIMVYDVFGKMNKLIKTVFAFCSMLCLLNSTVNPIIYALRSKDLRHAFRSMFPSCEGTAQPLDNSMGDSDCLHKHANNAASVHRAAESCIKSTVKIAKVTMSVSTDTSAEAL

colon cancer cells = details: one study
[3] = in vivo
CB2 receptor = CB2 receptor (Homo sapiens, UniProt P34972); details: unknown whether agonist or antagonist
Chain of CB2 receptor (P34972 whole entry): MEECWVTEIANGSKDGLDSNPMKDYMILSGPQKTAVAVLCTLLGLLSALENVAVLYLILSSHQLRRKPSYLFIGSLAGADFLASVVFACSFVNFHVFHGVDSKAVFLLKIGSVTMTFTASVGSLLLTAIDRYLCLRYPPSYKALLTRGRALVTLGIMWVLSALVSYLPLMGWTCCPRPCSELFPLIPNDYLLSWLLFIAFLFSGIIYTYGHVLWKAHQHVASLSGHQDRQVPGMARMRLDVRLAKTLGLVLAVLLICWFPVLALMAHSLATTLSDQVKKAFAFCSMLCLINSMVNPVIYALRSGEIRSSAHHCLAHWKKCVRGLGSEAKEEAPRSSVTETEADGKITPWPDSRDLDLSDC

CCCCCc1cc(O)c(C/C=C(\C)CCC=C(C)C)c(O)c1 [CBG, 2-[(2E)-3,7-dimethylocta-2,6-dienyl]-5-pentyl-benzene-1,3-diol]
affinity as 5-HT1A receptor antagonist (5-HT1A receptor): moderate affinity | anti-nausea and anti-emetic effect [1]: anti-nausea and anti-emetic effect | uptake of γ-aminobutyric acid (GABA) in the brain [2]: inhibits the uptake | affinity as CBI receptor antagonist (CBI receptor): low affinity | growth of colon cancer cells (colon cancer cells): inhibits the growth | effect on intraocular pressure [3]: relieve intraocular pressure | affinity as α2-adrenergic receptor agonist (α2-adrenergic receptor): high affinity | binding with the CB2 receptor (CB2 receptor): known to bind
